Measurements taken from patent US20110065675A1, “AZO DYE RELATED SMALL MOLECULE MODULATORS OF PROTEIN-PROTEIN INTERACTIONS” (University of Miami, priority 2008, published 2011).
Read-outs that look alike come from different tables or passages of the source.

Legend:
human TNF-R1/TNFα = human TNF-R1/TNFα (Homo sapiens, UniProt P01375+P19438); experiment: Specificity test: human TNF-R1/TNFα binding inhibition assay; settings: for IC50: cell-free binding, read-out: Human TNFR1/TNFα IC50; for Human TNFR1/TNFα log IC50: log of IC50, cell-free binding
human TNF-R1/TNFα, sequence (P01375 77-233 limits assumed): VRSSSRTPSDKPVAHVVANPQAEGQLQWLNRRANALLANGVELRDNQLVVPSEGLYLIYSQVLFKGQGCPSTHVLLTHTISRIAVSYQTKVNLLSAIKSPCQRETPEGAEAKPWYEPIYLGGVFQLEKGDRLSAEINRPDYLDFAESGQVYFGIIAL
human TNF-R1/TNFα, sequence (P19438 30-211 limits assumed): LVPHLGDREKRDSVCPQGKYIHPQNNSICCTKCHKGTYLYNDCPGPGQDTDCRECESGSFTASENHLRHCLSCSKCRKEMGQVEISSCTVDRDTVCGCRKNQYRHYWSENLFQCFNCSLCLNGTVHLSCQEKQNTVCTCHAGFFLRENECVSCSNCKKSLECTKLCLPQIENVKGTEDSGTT
Excerpt: A main concern for the therapeutic applicability of these compounds and of small molecule PPI inhibitors in general is related to their ability to achieve some acceptable degree of selectivity/specificity for the PPI of interest. To identify compounds that show acceptable specificity for the CD40/CD154 system, their ability to inhibit the TNF-R1/TNF-α PPI was investigated since this is particularly relevant as CD154 is part of the TNF superfamily. The experimental setup used was very similar to the one described in Example 1, but using plate-coated TNF-R1 and TNF-α as ligand (with a corresponding anti-TNF-α mAb as positive control). The concentration of TNF-R1 and TNF-α used were 0.6 μg/mL and 0.02 μg/mL, respectively.

human CD40/CD154 = target: T1, human CD40/CD154 (Homo sapiens, UniProt P29965); experiment: Human CD40/CD154 binding inhibition assay (cell-free, plate-based)
T1 construct: CD154 (soluble human, FLAG-tagged, recombinant from Alexis Biochemicals; MW=18 kDa); purchased Alexis Biochemicals
T1 sequence (P29965 113-261 limits assumed): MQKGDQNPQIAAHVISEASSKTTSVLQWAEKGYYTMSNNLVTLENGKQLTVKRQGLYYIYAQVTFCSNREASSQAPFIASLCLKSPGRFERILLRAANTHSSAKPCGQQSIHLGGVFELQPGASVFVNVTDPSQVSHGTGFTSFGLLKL
Procedure: A 96-well plate-based cell-free in vitro binding inhibition assay, which is a modification of an assay described in U.S. Pat. No. 7,173,046, incorporated by reference in its entirety, has been developed and used for activity screening. Briefly, CD40 is coated at a preselected concentration, and binding of (FLAG-tagged) CD154 is measured by reacting with secondary antibody and using TMB liquid substrate system as a substrate for horseradish peroxidase for reading at 450 nm. The detailed procedure is as follows: Microtiter plates (Nunc F MaxiSorp) were coated with […] of CD40: Fc (human:Fc human, recombinant from Alexis Biochemicals; MW=54 kDa) diluted in PBS pH 7.2 at a preselected concentration of 0.3125 μg/mL. Plates were covered with plate sealer and stored overnight at 4° C. The liquid was removed from the plates and blotted dry. Plates were blocked by washing once with approx. 300 μL/well of Blocking Solution (PBS pH 7.2, 0.05% Tween-20, 1% BSA) and incubated with the same solution for 1 hour at room temperature (RT) or at 4° C. overnight. Coated plates were washed three times with Washing Solution (PBS pH 7.4, 0.05% Tween-20) and blotted dry. A preselected dilution of CD154 (soluble human, FLAG-tagged, recombinant from Alexis Biochemicals; MW=18 kDa) of 0.0087500875 μg/mL range was prepared in 100 mM HEPES, 0.005% BSA pH 7.2. Binding was carried out by adding 100 μL of this CD154 dilution/well and incubating at RT in the presence of test compounds (or blank as negative control). After incubation, the plates were washed with Washing Solution and blotted dry. Bound CD154 was detected with 200 μL/well of secondary antibody mAb ANTI-FLAG M2—Peroxidase Conjugate (anti-FLAG M2-peroxidase HRP conjugate; Sigma-Aldrich) diluted 1:40,000 in Washing Solution. After incubation, the plates were washed and blotted dry. 200 μL/well of the HR-Peroxidase substrate TMB (3,3′,5,5′-tetramethylbenzidine; Sigma-Aldrich) were added, and the plates were incubated for approximately 30 minutes in the dark. The reaction was stopped with 0.5 M H2SO4 and read at 450 nm. All conditions were tested in at least three independent experiments in duplicate or triplicate per plates. Data were normalized and fitted with standard log inhibitor vs. response models using GraphPad Prism 5 to establish median inhibitory ICso values.
A representative result using the monoclonal anti-human CD154 antibody (R&D Systems, monoclonal anti-human CD40 ligand/TNFSF5 antibody, MAB617; MW≈150 kDa used) as positive control is shown in FIG. 1.
Binding inhibition assays with this system provided consistent and well-reproducible results, as FIG. 1 (bottom), focusing on the concentration range of their activities, illustrates. […] The effect of DMSO, which was used as the diluting solvent for the non-water-soluble compounds and is a standard solvent in HTS assays, on the integrity of the assay has been examined. DMSO concentrations above 10% interfere with the binding assay, but concentrations below 3% have no effect. […] Because 5 or 10 mM stock solutions were used, all IC50 values below 250 μM can be considered as unaffected by DMSO.

[1] = target: T2, mouse CD40/CD154 (mCD40:mCD154) (Mus musculus, UniProt P27548); experiment: Murine CD40/CD154 binding inhibition assay; settings: for IC50: cell-free binding, read-out: Mouse CD40/CD154 IC50; for Mouse CD40/CD154 log IC50: log of IC50, cell-free binding
T2 construct: (FLAG-tagged) mCD154 (recombinant mouse CD40L, soluble, Alexis Biochemicals); purchased R&D Systems (mCD40/Fc); Alexis Biochemicals (mCD154)
T2 sequence (P27548 112-260 limits assumed): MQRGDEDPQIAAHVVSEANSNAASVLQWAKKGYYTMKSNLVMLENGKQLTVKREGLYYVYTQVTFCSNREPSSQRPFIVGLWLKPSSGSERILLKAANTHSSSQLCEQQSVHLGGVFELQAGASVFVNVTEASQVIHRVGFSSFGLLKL
Procedure: Compounds of interest were also tested in a murine (mouse) model similar to the human one with murine CD40 and CD154 replacing the corresponding human proteins. This serves as additional confirmation of the in vitro inhibitory potential of these compounds, and it was considered important because mouse models are likely to be used as the first in vivo tests. […] The experimental setup used was similar to the one described above, but using mCD40 (recombinant mouse CD40/TNFRSF5/Fc Chimera, soluble, R&D Systems) and (FLAG-tagged) mCD154 (recombinant mouse CD40L, soluble, Alexis Biochemicals). This time, however, a higher concentration of CD154 ligand had to be employed to obtain adequate signals, and after a number of calibration tests, mCD40 coating at 0.3125 μg/mL with mCD154 (mCD40L) at 1.1212 μg/mL range was selected to be used to screen the inhibiting activity of various compounds.
The experiments confirmed that the murine anti-CD154 monoclonal antibody (Taconic, MR1) was active in this system at the expected concentration (˜1 nM range), the human antibody was not, and vice versa, the human mAb was active in the human system, but not in the mouse system. The mouse system provided a similar range of activity with some (up to approximately five-fold) changes in activities compared to that seen in the human system (FIG. 2) (Table 1).

[2] = cell-free binding, read-out: Human CD40/CD154 IC50
[3] = cell-free binding, read-out: Human CD40/CD154 IC50 (ug/mL) (converted)
[4] = log of IC50, cell-free binding, read-out: Human CD40/CD154 log IC50 (converted)

| Compound | IC50 (human TNF-R1/TNFα) | Human TNFR1/TNFα log IC50 (human TNF-R1/TNFα) | Human CD40/CD154 IC50 (human CD40/CD154; cell-free binding) | IC50 (human CD40/CD154; [2]) | Human CD40/CD154 log IC50 (human CD40/CD154; log of IC50, cell-free binding) | IC50 [1] | Mouse CD40/CD154 log IC50 [1] | IC50 (human CD40/CD154; [3]) | IC50 (human CD40/CD154; [4]) |
| --- | --- | --- | --- | --- | --- | --- | --- | --- | --- |
| Nc1c(N=Nc2cccc([N+](=O)[O-])c2)c(S(=O)(=O)[O-])cc2cc(S(=O)(=O)[O-])c(N=Nc3ccccc3)c(O)c12.[Na+].[Na+] [Acid blue 29, acid blue 29] | 467 µM | −3.33 | 18.6 µg/mL | 30.2 µM | −4.52 | – | – | – | – |
| O=S(=O)([O-])c1cccc(N=Nc2ccc(N=Nc3ccc(Nc4ccccc4)c4c(S(=O)(=O)[O-])cccc34)c3ccccc23)c1.[Na+].[Na+] [Acid blue 113, acid blue 113] | – | – | 0.8 µg/mL | 1.1 µM | −5.95 | – | – | – | – |
| Cc1ccc(S(=O)(=O)Oc2ccc(N=Nc3ccc(-c4ccc(N=Nc5c(O)ccc6cc(S(=O)(=O)[O-])cc(S(=O)(=O)[O-])c56)c(C)c4)cc3C)cc2)cc1.[Na+].[Na+] [Acid red 114, C.I. acid red 114] | 14.2 µM | −4.85 | 2.4 µg/mL | 2.8 µM | −5.55 | – | – | – | – |
| O=S(=O)([O-])c1cc(S(=O)(=O)[O-])c2c(N=Nc3ccc(N=Nc4ccccc4)cc3)c(O)ccc2c1.[Na+].[Na+] [Brilliant crocein (crocein scarlet MOO), Brilliant crocein, reference compound] | – | – | 92.8 µg/mL | 141 µM | −3.85 | 282 µM | −3.55 | – | – |
| Nc1ccc(N=Nc2ccc(-c3ccc(N=Nc4c(S(=O)(=O)[O-])cc5cc(S(=O)(=O)[O-])c(N=Nc6ccccc6)c(O)c5c4N)cc3)cc2)c(N)c1.[Na+].[Na+] [Chlorazol black (direct black 38), direct black 38] | – | – | 0.9 µg/mL | 1.1 µM | −5.95 | – | – | – | – |
| Nc1c(/N=N/c2ccc(-c3ccc(/N=N/c4cc(S(=O)(=O)O)c5ccccc5c4N)cc3)cc2)cc(S(=O)(=O)O)c2ccccc12 [Congo red] | 34.9 µM | – | – | 5.7 µM | – | – | – | 6.13 µM | – |
| Cc1cc(S(=O)(=O)[O-])ccc1N=Nc1ccc(N=Nc2c(O)ccc3cccc(S(=O)(=O)[O-])c23)c(C)c1.[Na+].[Na+] [Crocein scarlet 7B, crocein scarlet 7B] | 168 µM | −3.77 | 3.6 µg/mL | 5.5 µM | −5.26 | 13.7 µM | −4.86 | – | – |
| COc1cc(-c2ccc(N=Nc3c(S(=O)(=O)[O-])cc4cc(S(=O)(=O)[O-])cc(N)c4c3O)c(OC)c2)ccc1N=Nc1c(S(=O)(=O)[O-])cc2cc(S(=O)(=O)[O-])cc(N)c2c1O.[Na+].[Na+].[Na+].[Na+] [Direct blue 15, direct blue 15] | – | – | 1.4 µg/mL | 1.4 µM | −5.86 | – | – | – | – |
| Nc1ccc2c(O)c(N=Nc3ccc(N=Nc4ccc(N=Nc5cc(S(=O)(=O)[O-])c6cccc(S(=O)(=O)[O-])c6c5)c5ccccc45)c4ccc(S(=O)(=O)[O-])cc34)c(S(=O)(=O)[O-])cc2c1.[Na+].[Na+].[Na+].[Na+] [Direct blue 71, direct blue 71] | 98.5 µM | −4.01 | 2.2 µg/mL | 2.1 µM | −5.68 | – | – | – | – |
| CCOc1ccc(N=Nc2ccc(-c3ccc(N=Nc4c(O)ccc5cc(S(=O)(=O)[O-])cc(S(=O)(=O)[O-])c45)cc3)cc2)cc1.[Na+].[Na+] [Direct red 37, direct red 37] | – | – | 8.8 µg/mL | 13 µM | −4.88 | – | – | – | – |
| COc1ccccc1NC(=O)C(N=Nc1ccc(-c2nc3ccc(C)c(S(=O)(=O)[O-])c3s2)cc1S(=O)(=O)[O-])C(C)=O.[Na+].[Na+] (centres unmarked) [Direct yellow 27, direct yellow 27] | 42.4 µM | −4.37 | 1.3 µg/mL | 1.9 µM | −5.72 | – | – | – | – |
| Cc1cc(-c2ccc(/N=N/c3ccc4c(S(=O)(=O)O)cc(S(=O)(=O)O)c(N)c4c3O)c(C)c2)ccc1/N=N/c1ccc2c(S(=O)(=O)O)cc(S(=O)(=O)O)c(N)c2c1O [Evans blue] | – | – | – | – | – | – | – | 1.6 µM | 1.45 µM |
| Nc1cc(N)c(N=Nc2cccc3c(S(=O)(=O)O)cccc23)cc1N=Nc1cc([N+](=O)[O-])ccc1O.[Na] [Mordant brown 1, mordant brown 1] | 86 µM | −4.07 | 0.3 µg/mL | 0.7 µM | −6.18 | – | – | – | – |
| Cc1cc(-c2ccc(/N=N/c3c(S(=O)(=O)O)cc4cc(S(=O)(=O)O)cc(N)c4c3O)c(C)c2)ccc1/N=N/c1c(S(=O)(=O)O)cc2cc(S(=O)(=O)O)cc(N)c2c1O [Trypan blue, trypan blue] | – | – | – | – | – | – | – | 4.24 µM | 3.8 µM |
| acid red 188 | – | – | 7.0 µg/mL | 12.8 µM | −4.89 | – | – | – | – |
| direct blue 120 | – | – | 1.4 µg/mL | 1.6 µM | −5.80 | – | – | – | – |
| direct red 53 | – | – | 16.2 µg/mL | 24.4 µM | −4.61 | – | – | – | – |
